Source: patent US7799913B2, “Carbonylbenzoxazine compounds for enhancing glutamatergic synaptic responses” (Cortex Pharmaceuticals, Inc., priority 2001, dated 2010)

How the values were obtained:
[1] = eight-arm radial maze task for cognition/memory enhancement; format: in vivo
From the text: This task has been described previously (Staubli et al., PNAS 91:777-781 (1994)) and Lynch and Rogers, PCT Pubn. No. WO 94/02475).
This test has been described previously by Staubli et al., PNAS 91:777-781 (1994) and Lynch and Rogers, U.S. Pat. No. 5,747,492.

AMPA receptor = experiment: steady-state current induced by glutamate in cortical neurons in primary culture; format: cell-based, rat
Experimental: (§1) The physiological effects of invention compounds were tested in vitro on primary cultures of rat cortical neurons as described by Hamill, O P, et al. in Pflügers Arch 391: 85-100 (1981) or on slices of rat hippocampus according to the following procedure. Excitatory responses (field EPSPs) were measured in hippocampal slices, which were maintained in a recording chamber continuously perfused with artificial cerebrospinal fluid (ACSF). During a 15-30 minute interval, the perfusion medium was switched to one containing various concentrations of the test compounds. Responses collected immediately before and at the end of drug perfusion were superimposed in order to calculate the percent increase in EPSP amplitude.

AMPA receptors = experiment: field EPSP amplitude in field CA1 of rat hippocampal slice; format: cell-based
From the text: The field EPSP, (excitatory post-synaptic potential) recorded in field CA1 after stimulation of CA3 axons is known to be mediated by AMPA receptors, which are present in the synapses (Kessler et al., Brain Res. 560: 337-341 (1991)). Drugs that selectively block the receptor selectively block the field EPSP (Muller et al., Science, supra). […] These effects are mirrored in the field EPSP (see, for example, Staubli et al., Psychobiology, supra; Xiao et al., Hippocampus, supra; Staubli et al., Hippocampus 2: 4958 (1992)).
To obtain the data shown in Table I, a bipolar nichrome stimulating electrode was positioned in the dendritic layer (stratum radiatum) of the hippocampal subfield CA1 close to the border of subfield CA3, as described in Example 64. Current pulses (0.1 msec) through the stimulating electrode activate a population of the Schaffer-commissural (SC) fibers, which arise from neurons in the subdivision CA3 and terminate in synapses on the dendrites of CA1 neurons. Activation of these synapses causes them to release the transmitter glutamate. Glutamate binds to post-synaptic AMPA receptors, which then transiently open an associated ion channel and permit a sodium current to enter the postsynaptic cell. This current results in a voltage in the extracellular space (the field EPSP), which is recorded by a high impedance recording electrode positioned in the middle of the stratum radiatum of CA1.
The intensity of the stimulation current was adjusted to produce half-maximal EPSPs (typically about 1.5-2.0 mV). Paired stimulation pulses were given every 40 sec with an interpulse interval of 200 msec, as described further in Example 64.
Hippocampal slices were maintained in a recording chamber continuously perfused with artificial cerebrospinal fluid (ACSF). During 15-30 minute intervals, the perfusion medium was switched to one containing various concentrations of the test compounds. Responses collected immediately before and at the end of drug perfusion were superimposed in order to calculate the percent increase in EPSP amplitude.
as §1
To conduct these tests, the hippocampus was removed from anesthetized, 2 month old Sprague-Dawley rats and in vitro slices (400 μm thick) were prepared and maintained in an interface chamber at 35° C. using conventional techniques [see, for example, Dunwiddie and Lynch, J. Physiol. 276: 353-367 (1978)]. The chamber was constantly perfused at 0.5 mL/min with ACSF containing (in mM): NaCl 124, KCl 3, KH2PO4 1.25, MgSO4 2.5, CaCl2 3.4, NaHCO3 26, glucose 10 and L-ascorbate 2. A bipolar nichrome stimulating electrode was positioned in the dendritic layer (stratum radiatum) of the hippocampal subfield CA1 close to the border of subfield CA3.
Current pulses (0.1 msec) through the stimulating electrode activate a population of the Schaffer-commissural (SC) fibers, which arise from neurons in the subdivision CA3 and terminate in synapses on the dendrites of CA1 neurons. Activation of these synapses causes them to release the transmitter glutamate. Glutamate binds to the post-synaptic AMPA receptors, which then transiently open an associated ion channel and permit a sodium current to enter the postsynaptic cell. […]

Compound | MEDC: Minimum Effective Dose that produces a statistically significant improvement in behavior ([1]; eight-arm radial maze task) | EC2X: concentration of modulator required to double the steady state current (AMPA receptor; 300 μM glutamate on cultured neurons) | EC2x: concentration of compound that causes at least a doubling of the steady-state current (AMPA receptor; cortical neurons in primary culture, 300 μM glutamate) | Amp: concentration of compound that causes a 10% increase in the amplitude of the field EPSP (AMPA receptors; field CA1 of rat hippocampal slice, estimated by interpolation or extrapolation) | AMP: concentration of modulator that increases the amplitude of the fEPSP by 10% (AMPA receptors; rat hippocampal slice) | potency relative to CX516 (times more potent) ([1]; eight-arm radial maze MEDC)
O=C(c1ccc2nccnc2c1)N1CCCCC1 [CX516, 1-(quinoxaline-6-ylcarbonyl)piperidine, reference compound] | 12.5 mg/kg | 830 µM | 830 µM | 80 µM | 80 µM | 
O=C1c2cc3c(cc2OC2CCCN12)C(=O)N1CCCC1O3 [Example 1, (R,S), (R,S)-3aH,9aH-pyrrolidino[2,1-b]pyrrolidino[2″,1″-2′,3′](1,3-oxazino)[5′,6′-2,1]benzo[4,5-e]1,3-oxazaperhydroine-6,12-dione] |  |  |  |  |  | 250
